The source of these data is article PMC8373063 (2021).

The test system of experiment [1] is RNA Seq6 (RNA, single strand) UGAAGGAAGGU
The experiment in a line: fluorescence polarization. The settings on record: 100 mM NaCl; 20 mM HEPES, 25 °C, 0.5 μM compound. Background: Polarisation of emitted light reports the rotation of a fluorescent probe.

For experiment [2], the system named is DNA Seq6 (DNA, single strand) TGAAGGAAGGT
The experiment in a line: fluorescence polarization. The settings on record: 100 mM NaCl, 1 mM MgCl2; 20 mM HEPES, 25 °C, 0.5 μM compound.

Experiment [3] shares this test system. The experiment in a line: fluorescence polarization. As to conditions: 100 mM NaCl, 1 mM MgCl2; 20 mM HEPES, 25 °C, 0.5 μM compound. This is another data set of the same source.
Experiment [4] has the same test system. As to the kind of experiment: competitive fluorescence polarization. As to conditions: 100 mM NaCl, 1 mM MgCl2, 20 mM HEPES, tracer 0.5 μM SMN-C2 displaced from 25 μM DNA Seq6.
Experiment [5] has as its system RNA Seq4 (immobilised) (RNA, single strand) AAGAAGGAAGGUGC
As to the kind of experiment: SPR, immobilised RNA. As to conditions: running buffer not shown; SMN-C5 up to 40 μM.

Experiment [6] relates to RNA Seq4 (RNA, single strand) AAGAAGGAAGGUGC
The experiment in a line: fluorescence polarization. The settings on record: 100 mM NaCl; 20 mM HEPES, 25 °C, 0.5 μM compound.

The test system of experiment [7] is RNA Seq6 (RNA, single strand) UGAAGGAAGGU
As to the kind of experiment: fluorescence polarization. As to conditions: 100 mM NaCl; 20 mM HEPES, 25 °C, 0.5 μM compound. This is another data set of the same source.

Consider `CN1CCN(c2cc(F)c3cc(-c4ccc(Cl)cc4)c(=O)oc3c2)CC1`, for which the Kd was found to be 30.9 ± 6.7 µM in experiment [1] and 9.9 ± 0.9 µM in experiment [2].
The like results for `CN1CCN(c2cc(F)c3cc(-c4cccc(Cl)c4)c(=O)oc3c2)CC1` were, in that order, 32.8 ± 5.6 µM and 18.7 ± 4.0 µM.
The corresponding values for `CN1CCN(c2ccc3cc(-c4ccc(Cl)cc4)c(=O)oc3c2)CC1` are 30.6 ± 12.3 µM and 8.2 ± 0.7 µM.
Regarding `CN1CCN(c2ccc3cc(-c4cccc(Cl)c4)c(=O)oc3c2)CC1`, the figures for the Kd in experiment [1] and in experiment [2] were 35.9 ± 14.8 µM and 13.9 ± 1.1 µM, respectively.
For `CN1CCN(c2ccc3cc(-c4ccccc4Cl)c(=O)oc3c2)CC1`, the figures for the Kd in experiment [1] and in experiment [3] were > >100 μM and more than 100 µM, respectively.
Consider `COc1cn2cc(-c3cc4ccc(N5CCNCC5)cc4oc3=O)nc2cn1`, for which the Kd in experiment [1] was found to be 11.4 ± 0.7 µM; in experiment [3], 1.4 ± 0.2 µM.
For the compound `Cc1c(-c2ccc(Cl)cc2)c(=O)oc2cc(N3CCN(C)CC3)ccc12`, the Kd in experiment [1] and in experiment [2] was > >100 μM throughout.
Consider `Cc1c(-c2cccc(Cl)c2)c(=O)oc2cc(N3CCN(C)CC3)ccc12`, for which the Kd in experiment [1] and in experiment [2] was > >100 μM throughout.
As for `Cc1cn2cc(-c3cc(=O)n4cc(N5CCN(C)CC5)ccc4n3)cc(F)c2n1`, the “apparent Kd” value in experiment [4] was 5.8 ± 2.5 µM. In experiment [5], the dissociation constant Kd is 8.0 µM.
Turning to `Cc1cn2cc(-c3cc4ccc(N5CCN(CCNC(=O)OC(C)(C)C)[C@@H](C)C5)cc4oc3=O)nc2c(C)n1`, the Kd in experiment [1] amounted to 51.2 ± 4.9 µM; in experiment [2], 4.0 ± 0.3 µM; in experiment [6], 37.5 ± 14.0 µM.
As for `Cc1cn2cc(-c3cc4ccc(N5CCN[C@@H](C)C5)cc4oc3=O)nc2c(C)n1`, the Kd in experiment [7] is 18.5 ± 5.4 µM; in experiment [3], 2.9 ± 0.3 µM; in experiment [6], 25.4 ± 7.3 µM.
In the case of `O=c1oc2cc(N3CCNCC3)ccc2cc1-c1cn2ccccc2n1`, the equilibrium dissociation constant (Kd) was found to be 14.5 ± 2.3 µM in experiment [1] and 2.8 ± 0.5 µM in experiment [2].

The Kd is the free concentration of one partner at which half of the binding sites on the other are occupied at equilibrium, for simple one-to-one binding. The low end stands for a tighter complex, the high end for a looser complex. A word on the apparent Kd: it is a dissociation constant that holds for the conditions of the assay.
